{"source": "patent US12180187B2", "about": "“1-phenyl-5-azinylpyrazolyl-3-oxyalkyl acids and their use for controlling unwanted plant growth” (BAYER AKTIENGESELLSCHAFT, priority 2019, dated 2024)", "key": {"[1]": {"system": "SETVI", "test": "Post-emergence action against SETVI, 1.28 kg/ha", "format": "in vivo, Setaria viridis", "conditions": "dosage 1280 g/ha, visual rating about 3 weeks after treatment vs untreated controls", "method_in_brief": "(§1)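 Percent activity was scored visually ~3 wk post-spray relative to untreated plants. Treatment was post-emergence at the one-leaf stage using WP/EC in water with 0.5% additive (600 L/ha).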"}, "[2]": {"system": "STEME", "test": "Post-emergence action against STEME, 1.28 kg/ha", "format": "in vivo, Stellaria media", "conditions": "dosage 1280 g/ha, visual rating about 3 weeks after treatment vs untreated controls (100% = plants died)", "method_in_brief": "as §1"}, "[3]": {"system": "AVEFA", "test": "Post-emergence action at 320 g/ha against AVEFA", "format": "in vivo", "conditions": "visual rating about 3 weeks after treatment vs untreated controls; for pest or weed control at 320 g/ha: Avena fatua, 504 h", "method_in_brief": "(§2)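 Greenhouse-grown plants sprayed post-emergence at the one-leaf stage, 2 to 3 weeks after sowing, with WP or EC formulations plus 0.5% additive at 600 l/ha water, at 320 g/ha. Activity rated visually after about 3 weeks versus untreated controls (100% = plants died, 0% = like control).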"}, "[4]": {"system": "VIOTR", "test": "Post-emergence action at 320 g/ha against VIOTR", "format": "in vivo, Viola tricolor", "conditions": "visual rating about 3 weeks after treatment vs untreated controls; for pest or weed control at 320 g/ha: Viola tricolor, 504 h", "method_in_brief": "as §2"}, "[5]": {"system": "STEME", "test": "Pre-emergence action at 320 g/ha against STEME", "format": "in vivo, Stellaria media", "conditions": "greenhouse, scored visually after about 3 weeks vs untreated controls, 100% = plants have died, 0% = like control plants", "source_text": "b) Seeds of monocotyledonous and dicotyledonous weed plants and crop plants are placed in plastic or organic planting pots and covered with soil. The compounds of the invention, formulated in the form of wettable powders (WP) or as emulsion concentrates (EC), are then applied onto the surface of the covering soil as aqueous suspension or emulsion with addition of 0.5% additive at a water application rate of 600 l/ha (converted). After the treatment, the pots are placed in a greenhouse and kept under good growth conditions for the trial plants. After about 3 weeks, the effect of the preparations is scored visually in comparison with untreated controls as percentages. For example, 100% activity=the plants have died, 0% activity=like control plants. Tables 13 to 26 below show the effects of selected compounds of the general formula (I) on various harmful plants and at an application rate corresponding to 320 g/ha, which were obtained by the experimental procedure mentioned above."}, "[6]": {"system": "AMARE", "test": "Post-emergence action against AMARE, 1.28 kg/ha", "format": "in vivo, Amaranthus retroflexus", "conditions": "dosage 1280 g/ha, visual rating about 3 weeks after treatment vs untreated controls (100% = plants died)", "method_in_brief": "as §1"}, "[7]": {"system": "VERPE", "test": "Pre-emergence action against VERPE, 1280 g/ha", "format": "in vivo, Veronica persica", "conditions": "scored visually after about 3 weeks vs untreated controls (100% = plants have died); for pest or weed control at 1280 g/ha: Veronica persica, 504 h", "method_in_brief": "(§3)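 Activity was scored visually as percent versus untreated controls about 3 weeks after treatment (100% = dead plants, 0% = control-like). Compounds, formulated as wettable powders or emulsion concentrates, were sprayed onto the covering soil over freshly sown seeds in sandy loam, with 0.5% additive and 600 L/ha water.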"}, "[8]": {"system": "DIGSA", "test": "Post-emergence action at 320 g/ha against DIGSA", "format": "in vivo, Digitaria sanguinalis", "conditions": "Digitaria sanguinalis, 504 h, dosage 320 g/ha, visual rating about 3 weeks after treatment vs untreated controls (100% = plants died)", "method_in_brief": "as §2"}, "[9]": {"system": "HORMU", "test": "Post-emergence action at 320 g/ha against HORMU", "format": "in vivo, Hordeum murinum", "conditions": "visual rating about 3 weeks after treatment vs untreated controls", "source_text": "Accordingly, the compounds of the invention have good herbicidal action against a broad spectrum of weed grasses and broad-leaved weeds and are therefore suitable for controlling unwanted vegetation by the post-emergence method. • b) Seeds of monocotyledonous and dicotyledonous weeds and crop plants are placed in sandy loam in plastic or organic planting pots, covered with soil and cultivated in a greenhouse under controlled growth conditions. 2 to 3 weeks after sowing, the test plants are treated at the one-leaf stage. The compounds of the invention, formulated in the form of wettable powders (WP) or as emulsion concentrates (EC), are then sprayed onto the green parts of the plants as aqueous suspension or emulsion with addition of 0.5% additive at a water application rate of 600 l/ha (converted). After the test plants have been kept in the greenhouse under optimum growth conditions for about 3 weeks, the activity of the preparations is rated visually in comparison to untreated controls. For example, 100% activity=the plants have died, 0% activity=like control plants. Tables 39 to 49 below show the effects of selected compounds of the general formula (I) according to Tables 1 and 2 on various harmful plants and at an application rate corresponding to 320 g/ha, which were obtained by the experimental procedure mentioned above."}, "[10]": {"system": "PHBPU", "test": "Post-emergence action at 320 g/ha against PHBPU", "format": "in vivo", "conditions": "visual rating about 3 weeks after treatment vs untreated controls", "method_in_brief": "as §2"}, "[11]": {"system": "ABUTH", "test": "Post-emergence action at 320 g/ha against ABUTH", "format": "in vivo, Abutilon theophrasti", "conditions": "visual rating about 3 weeks after treatment vs untreated controls", "method_in_brief": "as §2"}, "[12]": {"system": "LOLRI", "test": "Pre-emergence action against LOLRI, 1280 g/ha", "format": "in vivo, Lolium rigidum", "conditions": "visual scoring after about 3 weeks vs untreated controls, 100% = plants have died, 0% = like control plants; for pest or weed control at 1280 g/ha: Lolium rigidum, 504 h", "method_in_brief": "as §3"}, "[13]": {"system": "DIGSA", "test": "Pre-emergence action against DIGSA, 1280 g/ha", "format": "in vivo, Digitaria sanguinalis", "conditions": "visual scoring after about 3 weeks vs untreated controls, 100% = plants have died, 0% = like control plants", "method_in_brief": "as §3"}, "[14]": {"system": "ECHCG", "test": "Post-emergence action at 320 g/ha against ECHCG", "format": "in vivo, Echinochloa crus-galli", "conditions": "dosage 320 g/ha, visual rating about 3 weeks after treatment vs untreated controls (100% = plants died)", "method_in_brief": "as §2"}, "[15]": {"system": "PHBPU", "test": "Pre-emergence action at 320 g/ha against PHBPU", "format": "in vivo", "conditions": "visual scoring after about 3 weeks vs untreated controls", "method_in_brief": "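Visual % scoring at about 3 weeks post-treatment against untreated pots (0% = like control, 100% = dead), greenhouse-grown. Compounds applied at 320 g/ha as aqueous WP/EC suspension or emulsion plus 0.5% additive, 600 l/ha water, onto covering soil of freshly sown pots before emergence.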"}, "[16]": {"system": "ALOMY", "test": "Pre-emergence action against ALOMY, 1280 g/ha", "format": "in vivo, Alopecurus myosuroides", "conditions": "visual scoring after about 3 weeks vs untreated controls, 100% = plants have died, 0% = like control plants", "method_in_brief": "as §3"}}, "data": [{"molecule": "COC(=O)COc1nn(-c2ccccc2F)c(-c2cncnc2)c1Br", "note": "[VI-004, Methyl {[4-bromo-1-(2-fluorophenyl)-5-(pyrimidin-5-yl)-1H-pyrazol-3-yl]oxy}acetate]", "values": [{"measurement": "Post-emergence action against SETVI", "setting": "[1]", "value": 90, "unit": "%"}, {"measurement": "Post-emergence action against STEME", "setting": "[2]", "value": 90, "unit": "%"}, {"measurement": "pest or weed control at 320 g/ha", "setting": "[3]", "value": 100, "unit": "%"}, {"measurement": "pest or weed control at 320 g/ha", "setting": "[4]", "value": 80, "unit": "%"}, {"measurement": "Pre-emergence action at 320 g/ha against STEME in %", "setting": "[5]", "value": 90, "unit": "%"}, {"measurement": "Post-emergence action against AMARE", "setting": "[6]", "value": 100, "unit": "%"}, {"measurement": "pest or weed control at 1280 g/ha", "setting": "[7]", "value": 90, "unit": "%"}, {"measurement": "pest or weed control at 320 g/ha", "setting": "[8]", "value": 90, "unit": "%"}, {"measurement": "Post-emergence action against HORMU in %", "setting": "[9]", "value": 90, "unit": "%"}, {"measurement": "Post-emergence action against PHBPU in %", "setting": "[10]", "value": 80, "unit": "%"}, {"measurement": "Post-emergence action against ABUTH in %", "setting": "[11]", "value": 80, "unit": "%"}, {"measurement": "pest or weed control at 1280 g/ha", "setting": "[12]", "value": 100, "unit": "%"}]}, {"molecule": "O=C(O)COc1nn(-c2ccccc2F)c(-c2cncnc2)c1Br", "note": "[VI-007, {[4-Bromo-1-(2-fluorophenyl)-5-(pyrimidin-5-yl)-1H-pyrazol-3-yl]oxy}acetic Acid]", "values": [{"measurement": "Post-emergence action against SETVI", "setting": "[1]", "value": 90, "unit": "%"}, {"measurement": "Post-emergence action against STEME", "setting": "[2]", "value": 100, "unit": "%"}, {"measurement": "pest or weed control at 320 g/ha", "setting": "[3]", "value": 100, "unit": "%"}, {"measurement": "pest or weed control at 320 g/ha", "setting": "[4]", "value": 90, "unit": "%"}, {"measurement": "Pre-emergence action at 320 g/ha against STEME in %", "setting": "[5]", "value": 100, "unit": "%"}, {"measurement": "pest or weed control at 1280 g/ha", "setting": "[7]", "value": 90, "unit": "%"}, {"measurement": "Pre-emergence action against DIGSA", "setting": "[13]", "value": 100, "unit": "%"}, {"measurement": "pest or weed control at 320 g/ha", "setting": "[8]", "value": 80, "unit": "%"}, {"measurement": "Post-emergence action at 320 g/ha against ECHCG in %", "setting": "[14]", "value": 80, "unit": "%"}, {"measurement": "Pre-emergence action against PHBPU in %", "setting": "[15]", "value": 90, "unit": "%"}, {"measurement": "Pre-emergence action against ALOMY", "setting": "[16]", "value": 90, "unit": "%"}, {"measurement": "Post-emergence action against HORMU in %", "setting": "[9]", "value": 90, "unit": "%"}, {"measurement": "Post-emergence action against PHBPU in %", "setting": "[10]", "value": 90, "unit": "%"}, {"measurement": "Post-emergence action against ABUTH in %", "setting": "[11]", "value": 90, "unit": "%"}, {"measurement": "pest or weed control at 1280 g/ha", "setting": "[12]", "value": 100, "unit": "%"}]}, {"molecule": "COC(=O)COc1nn(-c2ccc(F)cc2)c(-c2ccc(F)nc2)c1Br", "note": "[VII-002]", "values": [{"measurement": "Post-emergence action against SETVI", "setting": "[1]", "value": 90, "unit": "%"}, {"measurement": "Post-emergence action against STEME", "setting": "[2]", "value": 90, "unit": "%"}, {"measurement": "Post-emergence action against AVEFA in %", "setting": "[3]", "value": 100, "unit": "%"}, {"measurement": "Post-emergence action against VIOTR in %", "setting": "[4]", "value": 90, "unit": "%"}, {"measurement": "Pre-emergence action at 320 g/ha against STEME in %", "setting": "[5]", "value": 90, "unit": "%"}, {"measurement": "Post-emergence action at 320 g/ha against ECHCG in %", "setting": "[14]", "value": 90, "unit": "%"}, {"measurement": "Post-emergence action against HORMU in %", "setting": "[9]", "value": 90, "unit": "%"}, {"measurement": "Post-emergence action against PHBPU in %", "setting": "[10]", "value": 90, "unit": "%"}, {"measurement": "Post-emergence action against ABUTH in %", "setting": "[11]", "value": 80, "unit": "%"}, {"measurement": "Pre-emergence action against LOLRI", "setting": "[12]", "value": 100, "unit": "%"}]}, {"molecule": "CCOC(=O)COc1nn(-c2ccc(F)cc2F)c(-c2ccc(F)nc2)c1Cl", "note": "[VII-016]", "values": [{"measurement": "Post-emergence action against SETVI", "setting": "[1]", "value": 90, "unit": "%"}, {"measurement": "Post-emergence action against STEME", "setting": "[2]", "value": 100, "unit": "%"}, {"measurement": "Post-emergence action against AVEFA in %", "setting": "[3]", "value": 80, "unit": "%"}, {"measurement": "Post-emergence action against VIOTR in %", "setting": "[4]", "value": 80, "unit": "%"}, {"measurement": "Pre-emergence action at 320 g/ha against STEME in %", "setting": "[5]", "value": 90, "unit": "%"}, {"measurement": "Post-emergence action against AMARE", "setting": "[6]", "value": 90, "unit": "%"}, {"measurement": "Pre-emergence action against VERPE", "setting": "[7]", "value": 90, "unit": "%"}, {"measurement": "Post-emergence action at 320 g/ha against ECHCG in %", "setting": "[14]", "value": 80, "unit": "%"}, {"measurement": "Pre-emergence action against PHBPU in %", "setting": "[15]", "value": 90, "unit": "%"}, {"measurement": "Post-emergence action against HORMU in %", "setting": "[9]", "value": 80, "unit": "%"}, {"measurement": "Post-emergence action against PHBPU in %", "setting": "[10]", "value": 90, "unit": "%"}, {"measurement": "Post-emergence action against ABUTH in %", "setting": "[11]", "value": 90, "unit": "%"}, {"measurement": "Pre-emergence action against LOLRI", "setting": "[12]", "value": 100, "unit": "%"}]}]}
